Experiments:
[1] = target: T1, Kinesin-like protein KIF11 (Homo sapiens, UniProt P52732); test: Inhibition of human kinesin spindle protein by endpoint assay
T1 sequence (P52732 whole entry): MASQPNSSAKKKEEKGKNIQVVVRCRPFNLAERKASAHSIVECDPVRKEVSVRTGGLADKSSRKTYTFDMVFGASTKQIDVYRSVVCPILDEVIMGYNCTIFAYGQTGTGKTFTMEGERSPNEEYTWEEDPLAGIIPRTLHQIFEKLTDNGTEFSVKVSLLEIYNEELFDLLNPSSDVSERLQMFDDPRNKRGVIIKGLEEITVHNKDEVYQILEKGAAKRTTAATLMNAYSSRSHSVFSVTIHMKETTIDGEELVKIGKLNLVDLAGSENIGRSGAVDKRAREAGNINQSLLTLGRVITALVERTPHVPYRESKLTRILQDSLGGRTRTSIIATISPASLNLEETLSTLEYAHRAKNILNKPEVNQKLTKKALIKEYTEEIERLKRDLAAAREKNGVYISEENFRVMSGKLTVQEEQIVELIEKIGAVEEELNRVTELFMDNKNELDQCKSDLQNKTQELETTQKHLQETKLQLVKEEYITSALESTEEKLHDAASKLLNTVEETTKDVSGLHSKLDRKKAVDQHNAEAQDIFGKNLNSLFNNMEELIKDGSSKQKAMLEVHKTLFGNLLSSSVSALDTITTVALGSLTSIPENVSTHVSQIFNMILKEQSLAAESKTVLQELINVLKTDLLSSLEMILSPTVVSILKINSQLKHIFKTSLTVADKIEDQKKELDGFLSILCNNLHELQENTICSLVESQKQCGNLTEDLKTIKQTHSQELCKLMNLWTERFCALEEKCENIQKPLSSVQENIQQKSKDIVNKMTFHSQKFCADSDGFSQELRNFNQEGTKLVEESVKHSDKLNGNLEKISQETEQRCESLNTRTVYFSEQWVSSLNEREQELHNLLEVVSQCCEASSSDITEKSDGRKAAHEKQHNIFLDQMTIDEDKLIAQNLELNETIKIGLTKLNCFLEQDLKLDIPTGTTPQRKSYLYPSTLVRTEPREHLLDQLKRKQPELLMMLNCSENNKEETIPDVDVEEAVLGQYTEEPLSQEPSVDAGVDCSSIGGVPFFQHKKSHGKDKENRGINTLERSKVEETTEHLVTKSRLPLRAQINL

[2] = target: T2, Kinesin-like protein KIF3B (Homo sapiens, UniProt O15066); test: Inhibition of Kif3B
T2 sequence (O15066 whole entry): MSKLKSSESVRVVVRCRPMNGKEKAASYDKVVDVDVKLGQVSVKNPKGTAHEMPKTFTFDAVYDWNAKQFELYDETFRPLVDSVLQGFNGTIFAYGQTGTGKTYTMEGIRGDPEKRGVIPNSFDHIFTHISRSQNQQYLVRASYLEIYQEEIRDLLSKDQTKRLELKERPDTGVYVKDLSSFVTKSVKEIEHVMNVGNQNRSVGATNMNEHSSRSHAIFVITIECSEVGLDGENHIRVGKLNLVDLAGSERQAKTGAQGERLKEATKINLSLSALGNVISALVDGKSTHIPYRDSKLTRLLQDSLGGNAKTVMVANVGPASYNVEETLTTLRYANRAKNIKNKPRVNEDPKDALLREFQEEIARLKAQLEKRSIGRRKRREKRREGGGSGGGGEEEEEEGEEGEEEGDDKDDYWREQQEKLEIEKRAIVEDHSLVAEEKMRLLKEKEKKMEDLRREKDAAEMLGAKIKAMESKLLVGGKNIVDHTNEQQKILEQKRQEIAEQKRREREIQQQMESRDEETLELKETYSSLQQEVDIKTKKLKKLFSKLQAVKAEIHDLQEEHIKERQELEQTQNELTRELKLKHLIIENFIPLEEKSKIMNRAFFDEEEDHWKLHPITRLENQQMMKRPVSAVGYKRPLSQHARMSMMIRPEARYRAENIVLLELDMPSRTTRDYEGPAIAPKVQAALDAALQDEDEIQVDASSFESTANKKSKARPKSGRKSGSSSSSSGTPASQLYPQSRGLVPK

[3] = target: T3, Kinesin heavy chain isoform 5A (Homo sapiens, UniProt Q12840); test: Inhibition of nKHC
T3 sequence (Q12840 whole entry): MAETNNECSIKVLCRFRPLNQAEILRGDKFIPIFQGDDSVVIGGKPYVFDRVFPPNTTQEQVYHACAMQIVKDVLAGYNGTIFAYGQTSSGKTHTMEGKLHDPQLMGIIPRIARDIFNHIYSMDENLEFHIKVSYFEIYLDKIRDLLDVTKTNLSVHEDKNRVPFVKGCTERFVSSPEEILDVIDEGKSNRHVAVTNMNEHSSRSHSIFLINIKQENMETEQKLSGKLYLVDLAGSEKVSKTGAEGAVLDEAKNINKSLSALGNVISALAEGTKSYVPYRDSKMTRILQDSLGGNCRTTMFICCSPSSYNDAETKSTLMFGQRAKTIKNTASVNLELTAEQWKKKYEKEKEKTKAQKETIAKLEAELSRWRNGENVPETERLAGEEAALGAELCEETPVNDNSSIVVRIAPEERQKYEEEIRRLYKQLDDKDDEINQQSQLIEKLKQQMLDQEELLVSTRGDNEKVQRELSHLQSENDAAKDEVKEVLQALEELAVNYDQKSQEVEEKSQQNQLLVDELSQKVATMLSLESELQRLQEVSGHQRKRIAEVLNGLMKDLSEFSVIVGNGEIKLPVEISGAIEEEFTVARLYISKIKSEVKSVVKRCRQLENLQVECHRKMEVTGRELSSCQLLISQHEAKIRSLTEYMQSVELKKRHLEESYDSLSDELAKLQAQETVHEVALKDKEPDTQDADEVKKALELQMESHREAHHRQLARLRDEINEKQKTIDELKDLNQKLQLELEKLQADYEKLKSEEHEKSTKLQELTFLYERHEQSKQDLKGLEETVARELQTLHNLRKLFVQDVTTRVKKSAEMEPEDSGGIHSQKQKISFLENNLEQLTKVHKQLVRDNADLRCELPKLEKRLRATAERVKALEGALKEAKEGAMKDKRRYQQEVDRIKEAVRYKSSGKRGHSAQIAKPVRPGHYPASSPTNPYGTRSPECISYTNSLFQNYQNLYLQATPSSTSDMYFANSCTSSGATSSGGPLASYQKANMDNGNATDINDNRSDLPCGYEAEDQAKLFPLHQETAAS

[4] = target: Kinesin-like protein KIF11 (Homo sapiens) (UniProt P52732); test: Selectivity for human KSP over HSET

Row | Structure (SMILES) | IC50 [1] [µM] | IC50 [2] [µM] | IC50 [3] [µM] | fold change (FC) [4]
1 | COc1ccccc1NC(=O)c1ccc2c(c1)nc(Nc1ccc(S(N)(=O)=O)cc1)n2Cc1ccccc1C(F)(F)F | 2.4 | > 50 | > 50 | 
2 | NC(=O)c1ccc2c(c1)nc(Nc1ccc(S(N)(=O)=O)cc1)n2C1(c2ccccc2)CC1 | > 20 | > 50 | > 50 | 
3 | COC(=O)c1ccc2c(c1)nc(Nc1ccc(SC)cc1)n2Cc1ccccc1C(F)(F)F | 33.4 | > 50 | > 50 | 
4 | CNC(=O)c1ccc2c(c1)nc(Nc1ccc(S(N)(=O)=O)cc1)n2Cc1ccccc1C(F)(F)F | 9.2 | > 50 | > 50 | 
5 | NC(=O)c1cc2nc(Nc3ccc(S(N)(=O)=O)cc3)n(Cc3ccccc3C(F)(F)F)c2cc1F | 7.9 |  |  | 
6 | COc1ccc(Cc2nc3cc(C(=O)O)ccc3n2Cc2ccccc2C(F)(F)F)cc1 | > 20 |  |  | 
7 | NS(=O)(=O)c1ccc(Nc2nc3cc(C(=O)O)ccc3n2Cc2ccccc2C(F)(F)F)cc1 | > 20 | > 50 | > 50 | 
8 | COC(=O)c1ccc2c(c1)nc(Nc1ccc(OC)cc1)n2Cc1ccccc1C(F)(F)F | 13.4 | > 50 | > 50 | 
9 | COc1ccc(CNc2nc3cc(C(=O)O)ccc3n2Cc2ccccc2C(F)(F)F)cc1 | > 20 | > 50 | > 50 | 
10 | NC(=O)c1ccc2nc(Nc3ccc(S(N)(=O)=O)cc3)n(Cc3ccccc3C(F)(F)F)c2c1 | > 20 |  |  | 
11 | NC(=O)c1ccc2c(c1)nc(Nc1ccc(S(N)(=O)=O)cc1)n2Cc1ccccc1C(F)(F)F | 7.4 | > 50 | > 50 | 5
12 | COc1ccccc1Cn1c(Nc2ccc(S(N)(=O)=O)cc2)nc2cc(C(N)=O)ccc21 | 20 | > 50 | > 50 | 
13 | Cc1ccc(CNc2nc3cc(C(=O)O)ccc3n2Cc2ccccc2C(F)(F)F)cc1 | > 20 | > 50 | > 50 | 
14 | O=C(O)c1ccc2c(c1)nc(NCCN1CCOCC1)n2Cc1ccccc1C(F)(F)F | > 20 | > 50 | > 50 | 
15 | NS(=O)(=O)c1ccc(CNc2nc3cc(C(=O)O)ccc3n2Cc2ccccc2C(F)(F)F)cc1 | > 20 | > 50 | > 50 | 
16 | CNC(=O)c1ccc2c(c1)nc(Nc1ccc(OC)cc1)n2Cc1ccccc1C(F)(F)F | 5.2 | > 50 | > 50 | 
17 | CSc1ccc(Cc2nc3cc(C(=O)O)ccc3n2Cc2ccccc2C(F)(F)F)cc1 | > 20 |  |  | 
18 | NC1CCN(c2nc3cc(C(=O)O)ccc3n2Cc2ccccc2C(F)(F)F)C1 (centres undefined) | > 20 | > 50 | > 50 | 

Row | Structure (SMILES) | IC50 [1] [µM] | IC50 [2] [µM] | IC50 [3] [µM] | fold change (FC) [4]
19 | CC(c1ccccc1C(F)(F)F)n1c(Nc2ccc(S(N)(=O)=O)cc2)nc2cc(C(N)=O)ccc21 (centres undefined) | > 20 | > 50 | > 50 | 
20 | COC(=O)c1ccc2c(c1)nc(Nc1ccc(S(N)(=O)=O)cc1)n2Cc1ccccc1C(F)(F)F | 2.2 | > 50 | > 50 | 
21 | COc1cccc(Cn2c(Nc3ccc(S(N)(=O)=O)cc3)nc3cc(C(N)=O)ccc32)c1OC | 5 | > 50 | > 50 | 
22 | CS(=O)(=O)c1ccc(CNc2nc3cc(C(=O)O)ccc3n2Cc2ccccc2C(F)(F)F)cc1 | > 20 | > 50 | > 50 | 
23 | NC(=O)c1ccc2c(c1)nc(Nc1ccc(S(N)(=O)=O)cc1)n2Cc1csc2ccccc12 | 2.1 | > 50 | > 50 | > 24
24 | NS(=O)(=O)c1ccc(Nc2nc3cc(C(=O)N4CCCC4)ccc3n2Cc2ccccc2C(F)(F)F)cc1 | > 20 | > 50 | > 50 | 
25 | COc1ccc(Nc2nc3cc(C(=O)Nc4ccccc4OC)ccc3n2Cc2ccccc2C(F)(F)F)cc1 | 6 | > 50 | > 50 | 
26 | NC(=O)c1cc2c(cc1F)nc(Nc1ccc(S(N)(=O)=O)cc1)n2Cc1ccccc1C(F)(F)F | > 20 |  |  | 
27 | COc1ccc(Nc2nc3cc(C(=O)O)ccc3n2Cc2ccccc2C(F)(F)F)cc1 | > 20 | > 50 | > 50 | 
28 | CS(=O)(=O)c1ccc(Nc2nc3cc(C(=O)O)ccc3n2Cc2ccccc2C(F)(F)F)cc1 | 6.9 | > 50 | > 50 | 7
29 | CSc1ccc(Nc2nc3cc(C(=O)O)ccc3n2Cc2ccccc2C(F)(F)F)cc1 | 1.4 | > 50 | > 50 | 
30 | NC(=O)c1ccc2c(c1)nc(Nc1ccc(S(N)(=O)=O)cc1)n2Cc1nc2ccccc2s1 | > 20 | > 50 | > 50 | 
31 | CN(C)C(=O)c1ccc2c(c1)nc(Nc1ccc(S(N)(=O)=O)cc1)n2Cc1ccccc1C(F)(F)F | 16.3 | > 50 | > 50 | 
32 | COc1ccc(Nc2nc3cc(C(N)=O)ccc3n2Cc2ccccc2C(F)(F)F)cc1F | 1.3 | > 50 | > 50 | 11
33 | COc1ccc(Nc2nc3cc(C(=O)O)ccc3n2Cc2ccccc2C(F)(F)F)cc1F | 2.3 | > 50 | > 50 | 
34 | NC(=O)c1ccc2c(c1)nc(Nc1ccc(S(N)(=O)=O)cc1)n2Cc1ccccn1 | > 20 | > 50 | > 50 | 
35 | NC(=O)c1ccc2c(c1)nc(Nc1ccc(S(N)(=O)=O)cc1)n2Cc1csc2ccc(Cl)cc12 | 19 | > 50 | > 50 | 

Source: ChEMBL document CHEMBL1158447, “Substituted benzimidazoles: A novel chemotype for small molecule hKSP inhibitors” (Bioorg Med Chem Lett, 2009)
